From ChEMBL document CHEMBL5352414 (Eur J Med Chem, 2022)
The source made the active and inactive calls. The rule behind the calls is not given here.

What was measured:
[1] = target: D(2) dopamine receptor (Rattus norvegicus) (UniProt P61169); experiment: Displacement of [3H]-spiperone from dopamine D2 receptor in rat brain striatum membrane homogenates at 10 uM incubated for 90 mins; format: cell membranes
[2] = target: T1, Voltage-dependent T-type calcium channel subunit alpha-1H (Homo sapiens, UniProt O95180); experiment: Inhibition of human Cav3.2 T-type Ca2+ channel expressed in HEK293 cells assessed as reduction in T-currents at 0.3 uM at -80 mV holding potential by whole cell patch-clamp assay; format: cell-based
[3] = target: D(2) dopamine receptor (Rattus norvegicus) (UniProt P61169); experiment: Displacement of [3H]-spiperone from dopamine D2 receptor in rat brain striatum membrane homogenates at 1 uM incubated for 90 mins; format: cell membranes
[4] = target: Voltage-dependent T-type calcium channel subunit alpha-1G (Homo sapiens, UniProt O43497); experiment: Inhibition of human Cav3.1 T-type Ca2+ channel expressed in HEK293 cells assessed as effect on T-currents in response to -20 mV test pulse at -80 mV holding potential by whole cell patch-clamp assay; format: cell-based
[5] = Toxicity in mouse assessed as catelepsy at 10 mg/kg, ip measured for 300 mins by bar test; format: organism-based; details: in vivo, 5 h
[6] = Toxicity in mouse assessed as catelepsy at 8 nmol per mouse, icv measured for 180 mins by bar test; details: in vivo, icv_or_intrathecal, 3 h
[7] = Toxicity in mouse assessed as impairment of neuromuscular coordination by measuring shortened latency to fall at 10 mg/kg, ip measured after 60 to 90 mins by rota-rod test; format: organism-based; details: in vivo, time 60-90 min
[8] = Toxicity in mouse assessed as impairment of neuromuscular coordination by measuring shortened latency to fall at 1 mg/kg, ip measured after 60 to 90 mins by rota-rod test; format: organism-based; details: in vivo, time 60-90 min
[9] = Half life in mouse at 10 mg/kg, ip measured for 24 hrs by LC-MS/MS analysis; format: ADME, organism-based; details: in vivo
[10] = Antagonist activity at 5-HT1 receptor (unknown origin); design: species or system Homo sapiens
Mus musculus [11] = experiment: Antinociceptive activity in Na2S induced referred hyperalgesia mouse model at 0.03 to 0.5 mg/kg, ip pretreated for 30 mins followed by intracolonic administration of Na2S and measured for 30 mins by von frey test; format: functional, organism-based; details: dose 0.03-0.5 mg/kg, time 60.0 min
[12] = target: 5-hydroxytryptamine receptor 2A (Rattus norvegicus) (UniProt P14842); experiment: Antagonist activity at 5-HT2A receptor in Wistar rat jugular vein assessed as vasorelaxation of serotonin-induced contraction at 10 uM preincubated for 10 mins followed by serotonin stimulation; format: functional, tissue-based
Mus musculus [13] = experiment: Antinociceptive activity in Na2S induced colonic pain mouse model at 0.03 to 0.5 mg/kg, ip pretreated for 30 mins followed by intra-colonic administration of Na2S and measured for 30 mins by von frey test; format: functional, organism-based; details: dose 0.03-0.5 mg/kg, time 60.0 min
[14] = Toxicity in mouse assessed as catelepsy at 0.3 to 1 mg/kg, ip measured for 300 mins by bar test; format: organism-based; details: in vivo, 5 h, dose 0.3-1 mg/kg
[15] = target: T1, Voltage-dependent T-type calcium channel subunit alpha-1H; experiment: Inhibition of human Cav3.2 T-type Ca2+ channel expressed in HEK293 cells assessed as effect on T-currents in response to -20 mV test pulse at -80 mV holding potential by whole cell patch-clamp assay; format: cell-based
[16] = target: T1, Voltage-dependent T-type calcium channel subunit alpha-1H; experiment: Inhibition of human Cav3.2 T-type Ca2+ channel expressed in HEK293 cells assessed as effect on T-currents in response to -20 mV test pulse at -110 mV holding potential by whole cell patch-clamp assay; format: cell-based
[17] = target: 5-hydroxytryptamine receptor 2A (Rattus norvegicus) (UniProt P14842); experiment: Antagonist activity at 5-HT2A receptor in Wistar rat jugular vein assessed as vasorelaxation of serotonin-induced contraction at 100 uM preincubated for 10 mins followed by serotonin stimulation; format: functional, tissue-based; details: filed as antagonist

D(2) dopamine receptor (Rattus norvegicus), sequence (P61169 whole entry): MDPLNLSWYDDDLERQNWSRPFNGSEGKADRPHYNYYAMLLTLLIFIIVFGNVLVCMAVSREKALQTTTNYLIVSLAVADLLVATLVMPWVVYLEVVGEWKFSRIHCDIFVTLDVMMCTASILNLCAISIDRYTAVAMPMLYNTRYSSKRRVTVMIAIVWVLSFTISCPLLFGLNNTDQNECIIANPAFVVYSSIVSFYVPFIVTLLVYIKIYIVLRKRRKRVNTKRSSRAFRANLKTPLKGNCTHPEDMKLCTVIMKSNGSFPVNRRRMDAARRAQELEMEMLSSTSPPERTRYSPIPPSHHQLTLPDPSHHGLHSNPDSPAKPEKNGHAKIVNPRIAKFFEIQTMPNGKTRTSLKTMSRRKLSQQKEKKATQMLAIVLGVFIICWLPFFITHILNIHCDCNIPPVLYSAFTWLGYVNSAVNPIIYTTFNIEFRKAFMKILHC
T1 sequence (O95180 whole entry): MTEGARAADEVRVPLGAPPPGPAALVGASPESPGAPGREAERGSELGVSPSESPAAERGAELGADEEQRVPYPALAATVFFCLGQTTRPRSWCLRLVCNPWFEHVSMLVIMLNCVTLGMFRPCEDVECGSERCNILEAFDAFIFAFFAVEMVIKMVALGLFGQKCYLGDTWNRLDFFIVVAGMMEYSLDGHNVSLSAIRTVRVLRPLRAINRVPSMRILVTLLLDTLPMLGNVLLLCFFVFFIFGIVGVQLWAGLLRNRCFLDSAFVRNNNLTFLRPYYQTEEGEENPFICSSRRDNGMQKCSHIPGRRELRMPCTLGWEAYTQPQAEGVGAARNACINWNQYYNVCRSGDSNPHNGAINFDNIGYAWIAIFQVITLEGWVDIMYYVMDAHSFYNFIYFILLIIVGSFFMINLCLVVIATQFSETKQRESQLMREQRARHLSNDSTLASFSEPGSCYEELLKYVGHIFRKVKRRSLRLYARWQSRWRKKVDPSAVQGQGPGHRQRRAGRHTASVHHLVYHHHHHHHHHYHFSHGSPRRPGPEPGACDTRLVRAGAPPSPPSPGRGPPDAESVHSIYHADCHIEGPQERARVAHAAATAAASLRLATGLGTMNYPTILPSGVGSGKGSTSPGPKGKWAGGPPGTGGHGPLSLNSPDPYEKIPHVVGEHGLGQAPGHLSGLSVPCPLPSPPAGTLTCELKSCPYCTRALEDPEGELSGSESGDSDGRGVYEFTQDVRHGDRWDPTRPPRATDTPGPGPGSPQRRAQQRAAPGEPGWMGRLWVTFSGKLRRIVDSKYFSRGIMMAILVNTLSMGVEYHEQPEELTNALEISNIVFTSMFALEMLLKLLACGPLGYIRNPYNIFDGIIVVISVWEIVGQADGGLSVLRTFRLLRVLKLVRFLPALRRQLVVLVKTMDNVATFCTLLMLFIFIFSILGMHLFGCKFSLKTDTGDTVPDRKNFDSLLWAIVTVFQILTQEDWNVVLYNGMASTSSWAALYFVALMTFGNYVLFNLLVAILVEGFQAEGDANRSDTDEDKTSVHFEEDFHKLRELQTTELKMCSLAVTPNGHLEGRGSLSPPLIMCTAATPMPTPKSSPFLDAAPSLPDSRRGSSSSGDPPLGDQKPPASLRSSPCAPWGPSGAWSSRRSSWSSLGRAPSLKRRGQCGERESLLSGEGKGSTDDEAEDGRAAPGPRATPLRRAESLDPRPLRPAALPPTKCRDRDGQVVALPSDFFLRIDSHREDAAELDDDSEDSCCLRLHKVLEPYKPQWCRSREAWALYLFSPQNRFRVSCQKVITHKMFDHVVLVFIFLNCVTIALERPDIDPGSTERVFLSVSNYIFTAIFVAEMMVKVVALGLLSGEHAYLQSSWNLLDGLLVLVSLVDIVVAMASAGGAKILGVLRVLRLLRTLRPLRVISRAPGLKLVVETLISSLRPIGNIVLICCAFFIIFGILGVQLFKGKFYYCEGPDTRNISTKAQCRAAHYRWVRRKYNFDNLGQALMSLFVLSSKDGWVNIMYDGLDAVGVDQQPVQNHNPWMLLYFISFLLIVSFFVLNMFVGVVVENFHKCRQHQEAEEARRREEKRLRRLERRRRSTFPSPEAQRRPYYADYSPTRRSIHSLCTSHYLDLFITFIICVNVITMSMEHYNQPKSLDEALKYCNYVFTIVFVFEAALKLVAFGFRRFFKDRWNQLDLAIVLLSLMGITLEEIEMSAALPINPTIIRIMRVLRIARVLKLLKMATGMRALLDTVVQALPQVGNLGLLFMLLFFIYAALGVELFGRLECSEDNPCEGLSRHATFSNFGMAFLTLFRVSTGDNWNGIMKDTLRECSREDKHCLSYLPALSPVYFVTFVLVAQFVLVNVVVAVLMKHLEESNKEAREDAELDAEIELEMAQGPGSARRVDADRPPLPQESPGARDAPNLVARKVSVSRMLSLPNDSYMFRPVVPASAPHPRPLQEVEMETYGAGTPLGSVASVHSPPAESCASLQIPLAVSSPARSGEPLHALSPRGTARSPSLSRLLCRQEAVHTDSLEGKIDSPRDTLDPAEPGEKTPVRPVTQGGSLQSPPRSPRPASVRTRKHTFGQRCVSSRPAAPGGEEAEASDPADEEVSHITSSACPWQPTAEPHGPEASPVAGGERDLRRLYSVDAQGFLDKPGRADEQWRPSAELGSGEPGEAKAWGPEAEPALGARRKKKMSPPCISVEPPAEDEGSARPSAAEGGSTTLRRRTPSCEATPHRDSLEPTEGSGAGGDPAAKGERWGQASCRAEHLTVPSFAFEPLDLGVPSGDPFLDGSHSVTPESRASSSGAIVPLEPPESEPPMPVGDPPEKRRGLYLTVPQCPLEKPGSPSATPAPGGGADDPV
5-hydroxytryptamine receptor 2A (Rattus norvegicus), sequence (P14842 whole entry): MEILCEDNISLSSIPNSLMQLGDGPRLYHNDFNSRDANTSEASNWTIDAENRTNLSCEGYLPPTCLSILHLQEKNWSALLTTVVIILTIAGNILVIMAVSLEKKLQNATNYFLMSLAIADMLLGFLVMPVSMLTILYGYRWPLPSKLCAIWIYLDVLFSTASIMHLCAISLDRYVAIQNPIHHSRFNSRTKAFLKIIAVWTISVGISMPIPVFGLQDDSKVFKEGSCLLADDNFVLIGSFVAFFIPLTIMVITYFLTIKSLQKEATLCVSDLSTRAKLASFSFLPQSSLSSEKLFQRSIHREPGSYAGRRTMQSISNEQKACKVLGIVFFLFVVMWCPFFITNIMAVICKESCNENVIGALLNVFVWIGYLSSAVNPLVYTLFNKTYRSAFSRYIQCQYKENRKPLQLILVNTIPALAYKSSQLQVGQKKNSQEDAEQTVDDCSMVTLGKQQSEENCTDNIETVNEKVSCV

For COc1ccccc1CCCCN1CCC(n2c(=O)n(CCCCc3ccccc3)c3ccccc32)CC1, the Activity [1] was “inactive”, the inhibition [2] was “Active” and the Activity [3] was “inactive”.
In the case of O=c1n(CCCCc2ccccc2)c2ccccc2n1C1CCN(CCCCc2ccccc2)CC1, the IC50 [4] is reported as 209 nM, the Activity [5] is reported as “Non-Toxic” and the Activity [1] is reported as “inactive”. The Activity [6] was “Non-Toxic”, the inhibition [2] was “Active” and the Activity [3] was “inactive”. The Activity [7] was “Non-Toxic”.
For O=c1n(CCCCc2ccccc2Cl)c2ccccc2n1C1CCN(CCCCc2ccccc2)CC1, the inhibition [2] was “Active” and the Activity [3] was “inactive”.
For O=c1[nH]c2ccccc2n1C1CCN(CCCC(c2ccc(F)cc2)c2ccc(F)cc2)CC1 [PIMOZIDE], the Activity [8] was “Toxic”, the IC50 [4] was 307 nM and the half-life [9] was 2.47 h. The IC50 [10] was 2440 nM, the Activity [6] was “Toxic” and the Activity (Mus musculus [11]) was “Active”. For the same compound, the Activity ([12]; filed as antagonist) was “Active”, the Activity (Mus musculus [13]) was “Active” and the Activity [14] was “Toxic”.
In the case of O=C(CCCc1ccccc1)N1CCC(n2c(=O)n(CCCCc3ccccc3)c3ccccc32)CC1, the IC50 [4] is reported as 240 nM, the Activity [5] is reported as “Non-Toxic” and the Activity [1] is reported as “inactive”. The Activity [6] was “Non-Toxic”, the inhibition [2] was “Active” and the Activity [3] was “inactive”. For the same compound, the Activity [7] was “Non-Toxic”.
With COc1ccc2c(c1)c(CC(=O)O)c(C)n2C(=O)c1ccc(Cl)cc1 the Activity ([12]; filed as antagonist) was “Active”.
For O=c1n(CCCCc2ccccc2)c2ccccc2n1C1CCN(CCCC(c2ccc(F)cc2)c2ccc(F)cc2)CC1, the inhibition [2] was “inactive” and the Activity [3] was “inactive”.
With COc1ccccc1CCCCN1CCC(n2c(=O)n(CCCCc3ccccc3OC)c3ccccc32)CC1 the inhibition [2] was “Active” and the Activity [3] was “inactive”.
With COc1ccccc1CCCCn1c(=O)n(C2CCN(CCCCc3ccccc3)CC2)c2ccccc21 the inhibition [2] was “Active” and the Activity [3] was “inactive”.
In the case of O=c1n(CCCCc2ccccc2)c2ccccc2n1C1CCN(CCCOc2ccccc2)CC1, the Activity [1] is reported as “inactive”, the inhibition [2] is reported as “Active” and the Activity [3] is reported as “inactive”.
In the case of O=c1n(CCCCc2ccccc2)c2ccccc2n1C1CCN(CCCCc2cccc(F)c2)CC1, the IC50 [4] is reported as 211 nM, the IC50 [15] is reported as 151 nM and the inhibition [2] is reported as “Active”. For the same compound, the Activity [3] was “inactive”.
For O=c1n(CCCCc2cccc(F)c2)c2ccccc2n1C1CCN(CCCCc2cccc(F)c2)CC1, the IC50 [4] was 217 nM, the Activity [5] was “Non-Toxic” and the half-life [9] was 2.42 h. The IC50 [15] was 93 nM, the Activity [6] was “Non-Toxic” and the inhibition [2] was “Active”. For the same compound, the IC50 [16] was 1110 nM, the Activity [12] was “inactive” and the Activity [3] was “inactive”. The Activity [7] was “Non-Toxic”.
For COC(=O)[C@@H](N)CCCNC(=N)N[N+](=O)[O-], the Activity [17] was “Active”.
For O=c1n(CCCCc2ccccc2)c2ccccc2n1C1CCN(CCCCc2ccccc2F)CC1, the inhibition [2] was “Active” and the Activity [3] was “inactive”.
